Assay results taken from patent US20090286790A1, “ORGANIC COMPOUNDS” (priority 2006, published 2009).

Target: T1, CETP (Homo sapiens, UniProt P11597)
T1 construct: Human plasma (50 uL), assay buffer (35 uL) and test compound; tissue New Drug Development Research Center, Inc; host or cells: human EDTA plasma from healthy men
T1 sequence (P11597 18-493): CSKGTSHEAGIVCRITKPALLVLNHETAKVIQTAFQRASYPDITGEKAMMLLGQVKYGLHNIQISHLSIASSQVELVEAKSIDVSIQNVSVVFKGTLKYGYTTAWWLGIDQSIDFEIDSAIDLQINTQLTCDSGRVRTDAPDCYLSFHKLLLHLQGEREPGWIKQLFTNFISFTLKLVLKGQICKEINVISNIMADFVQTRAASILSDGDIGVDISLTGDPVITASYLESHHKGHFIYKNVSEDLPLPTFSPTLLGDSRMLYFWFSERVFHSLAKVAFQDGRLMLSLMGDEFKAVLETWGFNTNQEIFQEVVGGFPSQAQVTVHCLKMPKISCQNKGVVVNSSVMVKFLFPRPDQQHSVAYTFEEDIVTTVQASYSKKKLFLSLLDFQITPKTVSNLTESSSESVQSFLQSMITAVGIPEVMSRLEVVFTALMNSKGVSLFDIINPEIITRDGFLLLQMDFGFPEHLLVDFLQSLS
Experiment: In vitro CETP activity assay in human plasma
Format: biochemical
Settings: Table 1 Inhibitory Activity of Compounds
Method: The cDNA of human pro-apoAI (NCBI accession number: NM_000039) is cloned from human liver Quick-Clone™ cDNA (Clontech, CA) and inserted to a pET28a vector (Novagen, Germany) for bacterial expression. Expressed protein as a fusion protein with 6×His-tag at N-terminus in BL-21 Gold (DE3) (Strategene, CA) is purified using HiTrap Chelating (GE Healthcare, CT).
Pro-apoAI containing microemulsion as a donor particle is prepared following previous reports (J. Biol. Chem., 280:14918-22). Glyceryl trioleate (62.5 ng, Sigma, Mo.), 3-sn-phosphatidylcholine (583 ng, Wako Pure Chemical Industries, Japan), and cholesteryl BODIPY® FL C12 (250 ng, Invitrogen, CA) are dissolved in 1 mL of chloroform. The solution is evaporated, then residual solvent is removed in vacuum for more than 1 hr. […]
Human EDTA plasma samples from healthy men are purchased from New Drug Development Research Center, Inc. Donor solution is prepared by a dilution of donor microemulsion with assay buffer. […] Fluorescence intensities are measured every 30 min at 37° C. with excitation wave length of 485 nm and emission wavelength of 535 nm. The CETP activity (Fl/min) is defined as the changes of fluorescence intensity from 30 to 90 min.

Compound	IC50 [nM]
CC[C@@H]1C[C@H](N(Cc2cc(C(F)(F)F)cc(C(F)(F)F)c2)c2ncc(Br)cn2)C[C@H](Cc2ccccc2)N1C(=O)[C@H]1CC[C@@H](OC(C)=O)CC1 (relative stereo) [Example 17, acetic acid 4-{2-benzyl-4-[(3,5-bis-trifluoromethyl-benzyl)-(5-bromo-pyrimidin-2-yl)-amino]-6-ethyl-piperidine-1-carbonyl}-cyclohexyl Ester]	314
CC[C@@H]1C[C@H](N(Cc2cc(C(F)(F)F)cc(C(F)(F)F)c2)c2ncc(Br)cn2)C[C@H](Cc2ccccc2)N1C(=O)[C@H]1CC[C@@H](O)CC1 (relative stereo) [Example 18, {2-benzyl-4-[(3,5-bis-trifluoromethyl-benzyl)-(5-bromo-pyrimidin-2-yl)-amino]-6-ethyl-piperidin-1-yl}-(4-hydroxy-cyclohexyl)-methanone]	357
